Measured values published in US11357779B2 (G1 Therapeutics, Inc., priority 2018, dated 2022).
Like-named read-outs stand apart in the source and are kept apart here.

Assay: Noncompartmental pharmacokinetic parameters (Cmax, Tmax, AUC, Racc) in QD and BID cohorts of Form B
Type: in vivo, human
Conditions: Compound III; for AUC(0-t) / Cmax / Tmax: human, plasma, oral
Experimental: Analysis of plasma concentration versus time data for calculation of standard pharmacokinetic (PK) parameters following oral administration was conducted using Phoenix WinNonlin version 6.3 using actual blood sampling times.
The following pharmacokinetic parameters were calculated from the concentration versus time data obtained in Example 1 for each of the above QD (200 mg, 300 mg, 400 mg, 500 mg, or 650 mg dosed) and BID (100 mg, 150 mg, or 200 mg doses) Form B of Compound II dosage cohorts: • Cmax—the observed peak plasma concentration determined from the plasma concentration versus time data obtained on Day 1 and Day 29, as applicable; • Tmax—the time to reach the observed peak plasma concentration from the plasma concentration versus time data obtained on Day 1 and Day 29, as applicable; • AUC—area under the plasma concentration versus time curve during a dosing interval on Day 1 and Day 29, as applicable; and • Racc—accumulation ratio calculated as AUCDay 29/AUCDay 1.

[1] = 100 mg BID of Form B, Cohort 6, Day 1
[2] = 100 mg BID of Form B, Cohort 6, Day 29
[3] = 150 mg BID of Form B, Cohort 7, Day 1
[4] = 150 mg BID of Form B, Cohort 7, Day 29
[5] = 200 mg BID of Form B, Cohort 8, Day 1
[6] = 200 mg BID of Form B, Cohort 8, Day 29
[7] = 200 mg QD of Form B, Cohort 1, Day 1
[8] = 200 mg QD of Form B, Cohort 1, Day 29
[9] = 300 mg QD of Form B, Cohort 2, Day 1
[10] = 300 mg QD of Form B, Cohort 2, Day 29
[11] = 400 mg QD of Form B, Cohort 3, Day 1
[12] = 400 mg QD of Form B, Cohort 3, Day 29
[13] = 500 mg QD of Form B, Cohort 4, Day 1
[14] = 500 mg QD of Form B, Cohort 4, Day 29
[15] = 650 mg QD of Form B, Cohort 5, Day 1
[16] = 650 mg QD of Form B, Cohort 5, Day 29

O=C1NCC2(CCCCC2)n2c1cc1cnc(Nc3ccc(N4CCNCC4)cn3)nc12 [Compound III, 2′-((5-(piperazin-1-yl)pyridin-2-yl)amino)-7′,8′-dihydro-6′H-spiro[cyclohexane-1,9′-pyrazino[1′,2′:1,5]pyrrolo[2,3-d]pyrimidin]-6′-one]
AUClast (Max) [1]: 8.61 ng·h/mL | AUClast (Min) [1]: 2.87 ng·h/mL | Cmax (Max) [1]: 2.12 ng/mL | Cmax (Min) [1]: 1.11 ng/mL | AUClast (Max) [2]: 21.6 ng·h/mL | AUClast (Min) [2]: 3.45 ng·h/mL | Cmax (Max) [2]: 3.11 ng/mL | Cmax (Min) [2]: 0.855 ng/mL | Tmax (Max) [2]: 12.0 h | AUClast (Max) [3]: 17.5 ng·h/mL | AUClast (Min) [3]: 15.7 ng·h/mL | Cmax (Max) [3]: 3.67 ng/mL | Cmax (Min) [3]: 2.93 ng/mL | AUClast (Max) [4]: 101 ng·h/mL | AUClast (Min) [4]: 19.4 ng·h/mL | Cmax (Max) [4]: 12.2 ng/mL | Cmax (Min) [4]: 2.93 ng/mL | AUClast (Max) [5]: 25.4 ng·h/mL | AUClast (Min) [5]: 6.18 ng·h/mL | Cmax (Max) [5]: 4.07 ng/mL | Cmax (Min) [5]: 1.40 ng/mL | AUClast (Max) [6]: 30.8 ng·h/mL | AUClast (Min) [6]: 15.2 ng·h/mL | Cmax (Max) [6]: 4.12 ng/mL | Cmax (Min) [6]: 1.49 ng/mL | Tmax (Max) [6]: 12.0 h | AUClast (Max) [7]: 58.5 ng·h/mL | AUClast (Min) [7]: 5.29 ng·h/mL | Cmax (Max) [7]: 7.82 ng/mL | Cmax (Min) [7]: 1.27 ng/mL | AUClast (Max) [8]: 64.2 ng·h/mL | AUClast (Min) [8]: 1.97 ng·h/mL | Cmax (Max) [8]: 6.11 ng/mL | Cmax (Min) [8]: 0.864 ng/mL | AUClast (Max) [9]: 65.2 ng·h/mL | AUClast (Min) [9]: 10.9 ng·h/mL | Cmax (Max) [9]: 6.40 ng/mL | Cmax (Min) [9]: 1.82 ng/mL | Tmax (Min) [9]: 60 min | AUClast (Max) [10]: 97.5 ng·h/mL | AUClast (Min) [10]: 45.1 ng·h/mL | Cmax (Max) [10]: 6.05 ng/mL | Cmax (Min) [10]: 4.70 ng/mL | Tmax (Max) [10]: 8.00 h | AUClast (Max) [11]: 29.8 ng·h/mL | AUClast (Min) [11]: 17.8 ng·h/mL | Cmax (Max) [11]: 6.87 ng/mL | Cmax (Min) [11]: 3.02 ng/mL | Tmax (Min) [11]: 60 min | AUClast (Max) [12]: 54.7 ng·h/mL | AUClast (Min) [12]: 32.2 ng·h/mL | Cmax (Max) [12]: 4.54 ng/mL | Cmax (Min) [12]: 2.55 ng/mL | AUClast (Max) [13]: 91.4 ng·h/mL | AUClast (Min) [13]: 61.6 ng·h/mL | Cmax (Max) [13]: 9.03 ng/mL | Cmax (Min) [13]: 6.84 ng/mL | AUClast (Max) [14]: 69.8 ng·h/mL | AUClast (Min) [14]: 59.8 ng·h/mL | Cmax (Max) [14]: 7.91 ng/mL | AUClast (Max) [15]: 174 ng·h/mL | AUClast (Min) [15]: 61.8 ng·h/mL | Cmax (Max) [15]: 16.5 ng/mL | Cmax (Min) [15]: 5.56 ng/mL | Tmax (Max) [15]: 8.00 h | AUClast (Max) [16]: 169 ng·h/mL | AUClast (Min) [16]: 80.6 ng·h/mL | Cmax (Max) [16]: 12.1 ng/mL | Cmax (Min) [16]: 5.30 ng/mL | Tmax (Max) [16]: 8.00 h | AUC(0-t) (100 mg, 100 mg BID of Form B, Cohort 6, Day 1, read-out: AUClast (Mean)): 5.37 ng·h/mL | AUC(0-t) (100 mg, 100 mg BID of Form B, Cohort 6, Day 1, read-out: AUClast (Median)): 5.18 ng·h/mL | Cmax (100 mg, 100 mg BID of Form B, Cohort 6, Day 1, read-out: Cmax (Mean)): 1.59 ng/mL | Cmax (100 mg, 100 mg BID of Form B, Cohort 6, Day 1, read-out: Cmax (Median)): 1.6 ng/mL | Tmax (100 mg, 100 mg BID of Form B, Cohort 6, Day 1, read-out: Tmax (Mean)): 3.17 h | Tmax (100 mg, 100 mg BID of Form B, Cohort 6, Day 1, read-out: Tmax (Median)): 3 h | AUC(0-t) (100 mg, 100 mg BID of Form B, Cohort 6, Day 29, read-out: AUClast (Mean)): 13 ng·h/mL | AUC(0-t) (100 mg, 100 mg BID of Form B, Cohort 6, Day 29, read-out: AUClast (Median)): 9.86 ng·h/mL | Cmax (100 mg, 100 mg BID of Form B, Cohort 6, Day 29, read-out: Cmax (Mean)): 1.89 ng/mL | Cmax (100 mg, 100 mg BID of Form B, Cohort 6, Day 29, read-out: Cmax (Median)): 1.56 ng/mL | Tmax (100 mg, 100 mg BID of Form B, Cohort 6, Day 29, read-out: Tmax (Mean)): 4.4 h | Tmax (100 mg, 100 mg BID of Form B, Cohort 6, Day 29, read-out: Tmax (Median)): 2 h | AUC(0-t) (150 mg, 150 mg BID of Form B, Cohort 7, Day 1, read-out: AUClast (Mean)): 16.5 ng·h/mL
